Reference: publication PMC12257073 (Cancer Research Communications, 2025)
Where two headings read alike, the source gives them in different places.

Columns and labels:
[1] = Plasma pharmacokinetics of TP-0903 and metabolites (LC-MS/MS, noncompartmental analysis); type: in vivo, human; details: for Pre-treatment trough / Cmax / Tmax / AUC(0-t) / concentration at 24 h: median (range); for Cmax / Tmax / AUC(0-t) / concentration at 24 h: human, plasma, oral; for AUC(0-t): read-out: AUC0-24h; for concentration at 24 h: read-out: C24h trough
Protocol: On days 1 and 10 of cycle 1, plasma samples were collected for PK analysis from a total of 25 patients. In the phase 1b study portion of the study, plasma was collected before administration of TP-0903 on day 10 and at 0.5, 1, 2, 4, 8, and 24 hours after administration of TP-0903 on days 1 and 10. In the phase 2 portion of the study, plasma was collected at 2, 4, and 24 hours after drug administration. A validated ultrahigh-performance LC-MS/MS method was developed and used to quantify TP-0903 and its four major metabolites (M2, M3, M4, and M6) in plasma.
TP-0903 and its metabolites M2, M3, M4, and M6 were quantified in plasma using solid phase extraction and LC-MS/MS in the Ohio State University Comprehensive Cancer Center Pharmacoanalytical Shared Resource. See Supplementary Methods for details.
Sample preparation comprised 200 µL of K2EDTA plasma sample combined with 5 µL of 150 ng/mL internal standard mixture (TP-0903-d8 (NSN23293), M2-d8 (NSN23290), M3-d8 (NSN23292), M4-d8 (NSN23291), and M6-d8 (NSN23296)), 50 µL deionized (DI) water, and 50 µL of methanol in the wells of a 2-mL 96-well plate. Reference standards for TP-0903 (ditartrate salt), metabolites, and internal standards were obtained from Sumitomo Pharma America, Inc. (formerly Sumitomo Pharma Oncology, Inc.). Sample preparation was followed by shaking at 500 rpm for 5 minutes at room temperature and the addition of 1 mL of 0.1M sodium carbonate (791768-500G). After centrifugation at 3095 rcf for 10 minutes, 1 mL of supernatant was loaded onto a conditioned 30 mg HLB SPE plate (conditioning included 1 mL methanol flow through followed by 1 mL water flow through). After samples were loaded and passed through the SPE plate using a vacuum, the plate was washed with 1 mL DI water. Once the water passed through, analyte elution was done by loading 1 mL 2% formic acid in methanol, followed by drying with N2 gas heated to 40 °C. Once dried, they were resuspended with 100 µL reconstitution solution (22% acetonitrile, 22% methanol, 56% DI water, 0.5 mM ammonium acetate, and 0.2% formic acid). The chromatographic method utilized a gradient elution with mobile phase A (MPA; 15% acetonitrile, 15% methanol, 70% DI water, 0.5 mM ammonium acetate, and 0.2% formic acid) and mobile phase B (MPB; 45% acetonitrile, 45% methanol, 10% DI water, 0.5 mM ammonium acetate (09689-100G), and 0.2% formic acid (F0441-32)). The flow rate begins at 0.4 mL/min with 25% MPB, at 2.5 min the flow rate increased to 0.6 mL/min, at 5.5 minutes the %MPB increased to 100%, at 7.01 min the flow rate and %MPB decreased to 0.4 mL/min and 25%, respectively, until the end of the run. This method was run using an ACE Excel SuperC18 (3.0 x 75 mm, 5 µm, 90Å) column (EXL-1211-7503) with a ThermoFisher Scientific Vanquish™ – ThermoFisher Scientific (SCR_025713) TSQ Altis LC-MS/MS system (TSQ02-10002). The analytes and internal standards were evaluated in positive mode with the transitions monitored including M2 488.12->402.125, M2-d8 496.25->402.095, M3 502.2->402.113, M3-d8 510.2->402.113, M4 502.138->416.125, M4-d8 510.188->416.125, M6 518.112->402, M6-d8 526.2->402.113, and TP-0903 516.2->416.125, TP-0903-d8 524.237->416.125. […] Three quality control samples (QC Low, QC Medium, and QC High) were monitored during sample analyses to ensure the accuracy of assay quantitation. Additionally, a validation was performed that included the evaluation of selectivity, matrix effects, sensitivity, carry-over, freeze-thaw stability, processed sample stability, recovery, and dilution integrity (20X and 10X). Intra- and inter- day accuracy and precision of the calibrators and quality control samples, which also included the LLOQ for each analyte, was evaluated over 3 days. The quality control samples concentrations were continually monitored by statistical analysis of runs using Westgard rules (13s, 22s, R4s, and 10x) and adherence to FDA guidance of being within 15% except at the LLOQ of being within 20%. […]

[2] = Treatment duration and reasons off treatment
[3] = TP-0903 dose 25mg, Day 10 of course 1, plasma
[4] = TP-0903 dose 37 mg, Day 10 of course 1, plasma
[5] = 25 mg, TP-0903 dose 25mg, Day 1 of course 1, plasma
[6] = 25 mg, TP-0903 dose 25mg, Day 10 of course 1, plasma
[7] = 37 mg, TP-0903 dose 37 mg, Day 1 of course 1, plasma
[8] = 37 mg, TP-0903 dose 37 mg, Day 10 of course 1, plasma

With CN1CCN(Cc2ccc(Nc3ncc(Cl)c(Nc4ccccc4S(=O)(=O)N(C)C)n3)cc2)CC1.O=C(O)C(O)C(O)C(=O)O.O=C(O)C(O)C(O)C(=O)O [TP-0903, 2-(5-chloro-2-(4-((4-methylpiperazin-1-yl)methyl)phenylamino)pyrimidin-4-yl)amino-N,N-dimethylbenzene-1-sulfonamide di-tartrate salt] the “Steady-state TP-0903 plasma exposure (Css Min on Day 10), responders vs non-responders” value ([1]; Supplementary Fig. S3A) was “no significant difference”, the “Decrease in absolute neutrophil count or platelets in patients with steady-state plasma exposure above the median” value ([1]; Supplementary Fig. S3B, S3C) was “did not have a greater decrease” and the Pre-treatment trough [1, 3] was 7.1 (3.3-17) ng/mL. For the same compound, the Pre-treatment trough [1, 4] was 5.3 (1.0-21) ng/mL, the Drug accumulation ratio ([1]; based on the median AUC, day 10 vs day 1, both groups) was “six” and the “Variation in the steady-state Cmax of parent TP-0903” value ([1]; both groups (37 mg and 25 mg)) was greater than 25 fold. It also gave a Cmax [1, 5] of 2.4 ng/mL, a Tmax [1, 5] of 2.8 h and an AUC(0-t) ([1]; 25 mg, TP-0903 dose 25mg, Day 1 of course 1, plasma, N=11) of 42 ng·h/mL. The Cmax [1, 6] was 14 ng/mL, the Tmax [1, 6] was 3.5 h and the AUC(0-t) ([1]; 25 mg, TP-0903 dose 25mg, Day 10 of course 1, plasma, N=8) was 260 ng·h/mL. For the same compound, the Cmax [1, 7] was 3.3 ng/mL, the Tmax [1, 7] was 2.1 h and the AUC(0-t) ([1]; 37 mg, TP-0903 dose 37 mg, Day 1 of course 1, plasma, N=10) was 36 ng·h/mL. For the same compound, the Cmax [1, 8] was 13 ng/mL, the Tmax [1, 8] was 3.9 h and the AUC(0-t) ([1]; 37 mg, TP-0903 dose 37 mg, Day 10 of course 1, plasma, N=9) was 210 ng·h/mL. The concentration at 24 h ([1]; TP-0903 dose 25mg, Day 1 of course 1, plasma) was 1.9 ng/mL, the concentration at 24 h [1, 3] was 8.1 ng/mL and the concentration at 24 h ([1]; TP-0903 dose 37 mg, Day 1 of course 1, plasma) was 0.7 ng/mL. For the same compound, the concentration at 24 h [1, 4] was 5.8 ng/mL, the “Treatment discontinuation: AEs” value ([2]; group 1, 37 mg TP-0903 + decitabine) was 13% and the “Off treatment for reason: Adverse event” value ([2]; group 1, 37 mg, N = 15) was 2 (13.3) n (%). The “Treatment discontinuation: AEs” value ([2]; group 2, 25 mg TP-0903 + decitabine) was 17%, the “Off treatment for reason: Adverse event” value ([2]; group 2, 25 mg, N = 12) was 2 (16.7) n (%) and the “Off treatment for reason: Adverse event” value ([2]; overall, N = 27) was 4 (14.8) n (%).
